Test results published in patent EP0445023A1, “Vehicle for a therapeutically active agent for external use and antiseptic preparation comprising said vehicle” (INNOTHERA, priority 1990, dated 1991).

Assay: ex vivo transcutaneous passage
Format: in vitro ADME
Details: peau épilée ou rasée de rats, applied as the antiseptic preparation

Structure (SMILES): O=C(Nc1ccc(Cl)cc1)Nc1ccc(Cl)c(Cl)c1 [principe actif, trichloro-3,4,4′ carbanilide]
- passage transcutané du principe actif: n'ont pas permis de déceler un passage transcutané
